Values of other authors, collected in PubChem BioAssay AID1259409 (Chemical Carcinogenesis Research Information System (CCRIS), 2018).

Tested on: rodent chemically induced tumor inhibition, incidence and multiplicity
Assay: CCRIS tumor inhibitor studies
Conditions: Dose [Inhibitor]: 0, Route [Inhibitor]: SUBCUTANEOUS

CC(=O)O[C@]1(C(C)=O)CC[C@H]2[C@@H]3C[C@H](C)C4=CC(=O)CC[C@]4(C)[C@H]3CC[C@@]21C
tumour outcome (control, treated, inhibition, significance) (Carcinogen: 7,12-DIMETHYLBENZ[A]ANTHRACENE, 57-97-6, 30 MG (AS DEPO-PROVERA) ONCE 3 WK POST CARCINOGEN DOSE (STUDY DURATION: 85 D), Species: RAT, Strain/Sex: SPRAGUE-DAWLEY/FEMALE, Target Tissue: Type of Lesion: MAMMARY GLAND: TUMOR, Dose [Carcinogen]: 20 MG IN 1 ML CORN OIL ONCE, Promoter: NONE USED): 63%, 49%, 22%, not calculated | tumour outcome (control, treated, inhibition, significance) (Carcinogen: 7,12-DIMETHYLBENZ[A]ANTHRACENE, 57-97-6, 30 MG (AS DEPO-PROVERA) ONCE 7 D PRIOR TO CARCINOGEN DOSE (STUDY DURATION: 92 D), Species: RAT, Strain/Sex: SPRAGUE-DAWLEY/FEMALE, Target Tissue: Type of Lesion: MAMMARY GLAND: TUMOR, Dose [Carcinogen]: 20 MG IN 1 ML CORN OIL ONCE, Promoter: NONE USED): 63%, 28%, 56%, not calculated | tumour outcome (control, treated, inhibition, significance) (Carcinogen: 7,12-DIMETHYLBENZ[A]ANTHRACENE, 57-97-6, 30 MG (MICROSPHERES) ONCE 7 D PRIOR TO CARCINOGEN DOSE (STUDY DURATION: 92 D), Species: RAT, Strain/Sex: SPRAGUE-DAWLEY/FEMALE, Target Tissue: Type of Lesion: MAMMARY GLAND: TUMOR, Dose [Carcinogen]: 20 MG IN 1 ML CORN OIL ONCE, Promoter: NONE USED): 63%, 7%, 89%, not calculated | tumour outcome (control, treated, inhibition, significance) (Carcinogen: 7,12-DIMETHYLBENZ[A]ANTHRACENE, 57-97-6, 100 MG (AS DEPO-PROVERA) ONCE 3 WK POST CARCINOGEN DOSE (STUDY DURATION: 85 WK), Species: RAT, Strain/Sex: SPRAGUE-DAWLEY/FEMALE, Target Tissue: Type of Lesion: MAMMARY GLAND: TUMOR, Dose [Carcinogen]: 20 MG IN 1 ML CORN OIL ONCE, Promoter: NONE USED): 63%, 29%, 54%, not calculated | tumour outcome (control, treated, inhibition, significance) (Carcinogen: 7,12-DIMETHYLBENZ[A]ANTHRACENE, 57-97-6, 100 MG (AS DEPO-PROVERA) ONCE 7 D PRIOR TO CARCINOGEN DOSE (STUDY DURATION: 92 D), Species: RAT, Strain/Sex: SPRAGUE-DAWLEY/FEMALE, Target Tissue: Type of Lesion: MAMMARY GLAND: TUMOR, Dose [Carcinogen]: 20 MG IN 1 ML CORN OIL ONCE, Promoter: NONE USED): 63%, 23%, 63%, not calculated | tumour outcome (control, treated, inhibition, significance) (Carcinogen: 7,12-DIMETHYLBENZ[A]ANTHRACENE, 57-97-6, 100 MG (MICROSPHERES) ONCE 7 D PRIOR TO CARCINOGEN DOSE (STUDY DURATION: 92 D), Species: RAT, Strain/Sex: SPRAGUE-DAWLEY/FEMALE, Target Tissue: Type of Lesion: MAMMARY GLAND: TUMOR, Dose [Carcinogen]: 20 MG IN 1 ML CORN OIL ONCE, Promoter: NONE USED): 63%, 6%, 90%, not calculated | tumour outcome (control, treated, inhibition, significance) (Carcinogen: METHYLNITROSOUREA, 684-93-5, 40 MG DEPOT EVERY 2 MO (STUDY DURATION: 345 D), Species: MOUSE, Strain/Sex: BALB/FEMALE, Target Tissue: Type of Lesion: HEMATOPOIETIC SYSTEM: LYMPHOMA, Dose [Carcinogen]: 50 MG/KG BW ONCE 15 D POST INHIBITOR REMOVAL, Promoter: NONE): 18/28 (65%), 5/35 (17%), 74%, p<0.05 | tumour outcome (control, treated, inhibition, significance) (Carcinogen: METHYLNITROSOUREA, 684-93-5, 40 MG DEPOT EVERY 2 MO (STUDY DURATION: 345 D), Species: MOUSE, Strain/Sex: BALB/FEMALE, Target Tissue: Type of Lesion: LUNG: TUMOR, Dose [Carcinogen]: 50 MG/KG BW ONCE 15 D POST INHIBITOR REMOVAL, Promoter: NONE): 24/28 (86%), 28/31 (89%), -3%, not significant | tumour outcome (control, treated, inhibition, significance) (Carcinogen: METHYLNITROSOUREA, 684-93-5, 40 MG DEPOT EVERY 3 MO (STUDY DURATION: 277 D), Species: MOUSE, Strain/Sex: BALB/FEMALE, Target Tissue: Type of Lesion: HEMATOPOIETIC SYSTEM: LYMPHOMA, Dose [Carcinogen]: 50 MG/KG BW ONCE 1 WK POST INHIBITOR FIRST DOSE, Promoter: NONE): 18/28 (65%), 7/35 (19%), 71%, p<0.05 | tumour outcome (control, treated, inhibition, significance) (Carcinogen: METHYLNITROSOUREA, 684-93-5, 40 MG DEPOT EVERY 3 MO (STUDY DURATION: 277 D), Species: MOUSE, Strain/Sex: BALB/FEMALE, Target Tissue: Type of Lesion: LUNG: TUMOR, Dose [Carcinogen]: 50 MG/KG BW ONCE 1 WK POST INHIBITOR FIRST DOSE, Promoter: NONE): 24/28 (86%), 31/35 (88%), -2%, not significant | tumour outcome (control, treated, inhibition, significance) (Carcinogen: METHYLNITROSOUREA, 684-93-5, 40 MG DEPOT EVERY 3 MO BEGINNING 1 WK POST CARCINOGEN (STUDY DURATION: 9 MO), Species: MOUSE, Strain/Sex: BALB/FEMALE, Target Tissue: Type of Lesion: HEMATOPOIETIC SYSTEM: LYMPHOMA, Dose [Carcinogen]: 50 MG/KG BW ONCE, Promoter: NONE): 18/28 (65%), 7/50 (15%), 77%, p<0.05 | tumour outcome (control, treated, inhibition, significance) (Carcinogen: METHYLNITROSOUREA, 684-93-5, 40 MG DEPOT EVERY 3 MO BEGINNING 1 WK POST CARCINOGEN (STUDY DURATION: 9 MO), Species: MOUSE, Strain/Sex: BALB/FEMALE, Target Tissue: Type of Lesion: LUNG: TUMOR, Dose [Carcinogen]: 50 MG/KG BW ONCE, Promoter: NONE): 24/28 (86%), 44/50 (89%), -3%, not significant | tumour outcome (control, treated, inhibition, significance) (Carcinogen: METHYLNITROSOUREA, 684-93-5, 40 MG DEPOT FOR 2 MO BEGINNING 1 WK POST CARCINOGEN (STUDY DURATION: 9 MO), Species: MOUSE, Strain/Sex: BALB/FEMALE, Target Tissue: Type of Lesion: HEMATOPOIETIC SYSTEM: LYMPHOMA, Dose [Carcinogen]: 50 MG/KG BW ONCE, Promoter: NONE): 18/28 (65%), 7/27 (26%), 60%, p<0.05 | tumour outcome (control, treated, inhibition, significance) (Carcinogen: METHYLNITROSOUREA, 684-93-5, 40 MG DEPOT FOR 2 MO BEGINNING 1 WK POST CARCINOGEN (STUDY DURATION: 9 MO), Species: MOUSE, Strain/Sex: BALB/FEMALE, Target Tissue: Type of Lesion: LUNG: TUMOR, Dose [Carcinogen]: 50 MG/KG BW ONCE, Promoter: NONE): 24/28 (86%), 23/27 (85%), 0%, not significant
